Reference: patent US11945808B2, “Substituted cyclohexyl compounds as NOP inhibitors” (Dart NeuroScience, LLC, priority 2018, dated 2024)

Biological target: human opioid NOP (Homo sapiens, UniProt P41146)
Assay: Cell-based NOP cAMP assay (LANCE cAMP, TR-FRET)
Settings: antagonism of nociceptin in cAMP assay, cells expressing human NOP, forskolin-stimulated; values given as ranges; read-out: NOP (pIC50) (converted)
Method: Formula (I) compounds were tested for antagonism of the nociceptin receptor (NOP) in a cell-based cAMP assay, using the LANCE cAMP Detection Kit, Perkin Elmer (Waltham, MA). This assay (LANCE cAMP) is a homogeneous, time-resolved fluorescence resonance energy transfer (TR-FRET) immunoassay designed to measure cAMP produced upon modulation of adenylyl cyclase activity by G protein-coupled receptors (GPCRs).
Cells expressing human opioid NOP (ValiScreen cell line, cat #ES-230-C Perkin Elmer (Waltham, MA) were dispensed in simulation buffer (5 mM Hepes, 0.1% BSA, 0.5 mM IBMX in Hanks Buffered Saline Solution) at 2.5 μL cells per well (400 cells/well) into a 1536 white TC-treated assay plate. Compound was then added and plates were incubated for 15 minutes at room temperature. To each well was added 2.5 μL of a solution containing forskolin (3 μM final) and nociceptin peptide ([…] final) diluted in stimulation buffer, and the plates were incubated for 30 minutes at room temperature. To each well was dispensed 5 μL of LANCE Ultra detection (1:300 dilution of anti-cAMP ULight with a 1:100 dilution of Eu-cAMP tracer diluted in cAMP Detection Buffer) reagent, and the plates were incubated for 1 hr at room temperature. The plate was then read on the ViewLux microplate reader (Perkin Elmer, Waltham, MA) using the LANCE 1536 protocol with 60 second exposure times and 50 μs delay. This protocol has an excitation wavelength of 340 nm (DUG11 filter) and emission wavelengths of 615 nm (Eu-Donor) and 665 nm (Alexa 647 cAMP antibody acceptor).
Data was analyzed, normalized, and visualized using ACAS (John McNeil & Co.). Efficacy was calculated using activity of the vehicle (DMSO) as 0% efficacy and the activity of the corresponding reference positive control (SCH 221510, Tocris Bioscience (Pittsburgh, PA), Catalog number 3240) as 100% efficacy. Activity was calculated as the ratio of donor and acceptor emissions. All curve fits and IC50 determinations were performed using a non-linear regression model. The IC50 value was measured as the concentration at which half-maximal response was calculated.

human opioid NOP, sequence (P41146 whole entry): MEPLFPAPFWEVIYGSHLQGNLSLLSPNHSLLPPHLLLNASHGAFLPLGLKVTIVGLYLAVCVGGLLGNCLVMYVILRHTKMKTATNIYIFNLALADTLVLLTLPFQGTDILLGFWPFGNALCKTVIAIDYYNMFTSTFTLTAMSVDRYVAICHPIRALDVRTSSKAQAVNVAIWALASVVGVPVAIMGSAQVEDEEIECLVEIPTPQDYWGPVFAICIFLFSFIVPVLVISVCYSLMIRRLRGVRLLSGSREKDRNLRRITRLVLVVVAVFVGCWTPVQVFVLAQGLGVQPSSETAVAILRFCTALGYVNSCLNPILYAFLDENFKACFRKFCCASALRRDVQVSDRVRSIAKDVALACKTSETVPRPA

CNC(=O)C1(NCC[C@H]2CC[C@H](c3ncc(F)cc3C(F)(F)F)CC2)CCOCC1 [Example 51, 4-((2-((trans)-4-(5-fluoro-3-(trifluoromethyl)pyridin-2-yl)cyclohexyl)ethyl)amino)-N-methyltetrahydro-2H-pyran-4-carboxamide] and CNC(=O)C1(NCC[C@H]2CC[C@@H](c3ncc(F)cc3C(F)(F)F)CC2)CCOCC1 [Example 50, 4-((2-((cis)-4-(5-fluoro-3-(trifluoromethyl)pyridin-2-yl)cyclohexyl)ethyl)amino)-N-methyltetrahydro-2H-pyran-4-carboxamide] cannot be ordered by IC50: greater than 1000 nM for the first, greater than 1000 nM for the second.

Cc1ccncc1C1CCC(CCNC2(C(N)=O)CCCC2)CC1 (stereo not shown) [Example 118, 1-({2-[4-(4-Methylpyridin-3-yl)cyclohexyl]ethyl}amino)cyclopentane-1-carboxamide] and Cc1cnccc1C1CCC(CCNC2(C(N)=O)CCCC2)CC1 (stereo not shown) [Example 123, 1-({2-[4-(3-Methylpyridin-4-yl)cyclohexyl]ethyl}amino)cyclopentane-1-carboxamide] cannot be ordered by IC50: greater than 1000 nM for the first, greater than 1000 nM for the second.

CC(=O)N1CCC(NCCC2CCC(c3ncc(F)cc3Cl)CC2)CC1 (stereo not shown) [Example 172, 1-[4-({2-[4-(3-Chloro-5-fluoropyridin-2-yl)cyclohexyl]ethyl}amino)piperidin-1-yl]ethan-1-one] and CC(=O)N1CCC(NCCC2CCC(c3ncccc3Cl)CC2)CC1 (stereo not shown) [Example 173, 1-[4-({2-[4-(3-Chloropyridin-2-yl)cyclohexyl]ethyl}amino)piperidin-1-yl]ethan-1-one] cannot be ordered by IC50: greater than 1000 nM for the first, greater than 1000 nM for the second.

CN1CCC(NCCC2CCC(c3cccc(F)c3Cl)CC2)CC1 (stereo not shown) [Example 179, N-{2-[4-(2-Chloro-3-fluorophenyl)cyclohexyl]ethyl}-1-methylpiperidin-4-amine] and CC(=O)N1CCC(NCCC2CCC(c3cccc(F)c3Cl)CC2)CC1 (stereo not shown) [Example 171, 1-[4-({2-[4-(2-Chloro-3-fluorophenyl)cyclohexyl]ethyl}amino)piperidin-1-yl]ethan-1-one] cannot be ordered by IC50: greater than 1000 nM for the first, greater than 1000 nM for the second.

NC(=O)C1(NCCC2CCC(c3ncccc3Cl)CC2)CCCC1 (stereo not shown) [Example 116, 1-({2-[4-(3-Chloropyridin-2-yl)cyclohexyl]ethyl}amino)cyclopentane-1-carboxamide] and Cc1cccnc1C1CCC(CCNC2(C(N)=O)CCCC2)CC1 (stereo not shown) [Example 117, 1-({2-[4-(3-Methylpyridin-2-yl)cyclohexyl]ethyl}amino)cyclopentane-1-carboxamide] cannot be ordered by IC50: greater than 1000 nM for the first, greater than 1000 nM for the second.

Cc1cnccc1C1CCC(CCNC2CCN(C)CC2)CC1 (stereo not shown) [Example 187, 1-Methyl-N-{2-[4-(3-methylpyridin-4-yl)cyclohexyl]ethyl}piperidin-4-amine] and Cc1cccnc1C1CCC(CCNC2CCN(C)CC2)CC1 (stereo not shown) [Example 182, 1-Methyl-N-{2-[4-(3-methylpyridin-2-yl)cyclohexyl]ethyl}piperidin-4-amine] cannot be ordered by IC50: greater than 1000 nM for the first, greater than 1000 nM for the second.

Cc1nccnc1[C@H]1CC[C@H](CCNC2CCOCC2)CC1 [Example 88, N-(2-((trans)-4-(3-methylpyrazin-2-yl)cyclohexyl)ethyl)tetrahydro-2H-pyran-4-amine] and Fc1cnc([C@H]2CC[C@H](CCNC3CCOCC3)CC2)nc1 [Example 12, N-(2-((trans)-4-(5-fluoropyrimidin-2-yl)cyclohexyl)ethyl)tetrahydro-2H-pyran-4-amine] cannot be ordered by IC50: greater than 1000 nM for the first, greater than 1000 nM for the second.

CC(=O)N1CCC(NCCC2CCC(c3cnccc3C)CC2)CC1 (stereo not shown) [Example 175, 1-[4-({2-[4-(4-Methylpyridin-3-yl)cyclohexyl]ethyl}amino)piperidin-1-yl]ethan-1-one] and CC(=O)N1CCC(NCCC2CCC(c3ncccc3C)CC2)CC1 (stereo not shown) [Example 174, 1-[4-({2-[4-(3-Methylpyridin-2-yl)cyclohexyl]ethyl}amino)piperidin-1-yl]ethan-1-one] cannot be ordered by IC50: greater than 1000 nM for the first, greater than 1000 nM for the second.

First: Fc1ccc([C@H]2CC[C@@H](CCNC3CCOCC3F)CC2)c(Cl)c1 (single isomer, unassigned) [Example 57, N-(2-((cis)-4-(2-chloro-4-fluorophenyl)cyclohexyl)ethyl)-3-fluorotetrahydro-2H-pyran-4-amine]
Second: O=C1CC(NCC[C@H]2CC[C@H](c3ccc(F)cc3Cl)CC2)CCN1 (mixture of isomers) [Example 163, Racemic-4-({2-[(trans)-4-(2-Chloro-4-fluorophenyl)cyclohexyl]ethyl}amino)piperidin-2-one]
The IC50 of the first is lower: less than 1 nM for the first, 1 to 10 nM for the second.

Cc1cnccc1C1CCC(CCNC2(C)CCCC2)CC1 (stereo not shown) [Example 121, 1-Methyl-N-{2-[4-(3-methylpyridin-4-yl)cyclohexyl]ethyl}cyclopentan-1-amine] and Cc1ccncc1C1CCC(CCNC2(C)CCCC2)CC1 (stereo not shown) [Example 111, 1-Methyl-N-{2-[4-(4-methylpyridin-3-yl)cyclohexyl]ethyl}cyclopentan-1-amine] cannot be ordered by IC50: greater than 1000 nM for the first, greater than 1000 nM for the second.

Cc1cnccc1C1CCC(CCNC2(C)CCOCC2)CC1 (stereo not shown) [Example 139, 4-Methyl-N-{2-[4-(3-methylpyridin-4-yl)cyclohexyl]ethyl}oxan-4-amine] and COCC1(NCCC2CCC(c3ncccc3Cl)CC2)CCOCC1 (stereo not shown) [Example 146, N-{2-[4-(3-Chloropyridin-2-yl)cyclohexyl]ethyl}-4-(methoxymethyl)oxan-4-amine] cannot be ordered by IC50: greater than 1000 nM for the first, greater than 1000 nM for the second.

First: Cc1c(F)c(F)ccc1[C@H]1CC[C@H](CCNC2(C(N)=O)CCOCC2)CC1 [Example 49, 4-((2-((trans)-4-(3,4-difluoro-2-methylphenyl)cyclohexyl)ethyl)amino)tetrahydro-2H-pyran-4-carboxamide]
Second: NC(=O)C1(NCCC2CCC(c3cccc(F)c3Cl)CC2)CCCC1 (stereo not shown) [Example 114, 1-({2-[4-(2-Chloro-3-fluorophenyl)cyclohexyl]ethyl}amino)cyclopentane-1-carboxamide]
The IC50 of the first is lower: 100 to 1000 nM for the first, greater than 1000 nM for the second.

First: Clc1cccc(Cl)c1C1CCC(CCNC2CCOCC2)CC1 (single isomer, unassigned) [Example 8, N-(2-((cis)-4-(2,6-dichlorophenyl)cyclohexyl)ethyl)tetrahydro-2H-pyran-4-amine]
Second: CN1CCC(NCCC2CCC(c3ncccc3Cl)CC2)CC1 (stereo not shown) [Example 181, N-{2-[4-(3-Chloropyridin-2-yl)cyclohexyl]ethyl}-1-methylpiperidin-4-amine]
The IC50 of the first is lower: 1 to 10 nM for the first, greater than 1000 nM for the second.

CC1(NCCC2CCC(c3cccc(F)c3Cl)CC2)CCCC1 (stereo not shown) [Example 106, N-{2-[4-(2-Chloro-3-fluorophenyl)cyclohexyl]ethyl}-1-methylcyclopentan-1-amine] and CC(=O)N1CCC(NCCC2CCC(c3cc(F)ccc3Cl)CC2)CC1 (stereo not shown) [Example 178, 1-[4-({2-[4-(2-Chloro-5-fluorophenyl)cyclohexyl]ethyl}amino)piperidin-1-yl]ethan-1-one] cannot be ordered by IC50: greater than 1000 nM for the first, greater than 1000 nM for the second.
